The results in this text go back to patent US5656629A, “6-substituted pyrazolo (3,4-d)pyrimidin-4-ones and compositions and methods of use thereof” (Sanofi Winthrop, Inc., priority 1995, dated 1997).

For test [1], the target named is T1, cGMP-PDE V (Homo sapiens, UniProt O76074).
T1 construct: isolated from cardiovascular tissues (heart and aorta); from tissue; host or cells: cardiovascular tissues (heart and aorta)
The test can be described thus: cGMP-PDE V inhibition (isozyme isolated from cardiovascular tissue). Type of test: biochemical, various animal species and man. The text has this:
The cGMP-PDE and other PDE isozymes were isolated from cardiovascular tissues (heart and aorta) of various animal species and man by anion-exchange and affinity chromatography as described by Silver et al., Sec. Messeng. Phos. […] Cyclic Nucleotide Res. 10:69-92.

Test [2] has as its system Spontaneously hypertensive rats (SHR). The test can be described thus: antihypertensive activity in conscious spontaneously hypertensive rats (mean arterial pressure). Type of test: in vivo. To be noted: Rattus norvegicus, SHR iv; for ED25: 5 min, 5 min after dose, cumulative dosing, read-out: ED25, change in mean arterial pressure. The procedure: After a 2 day recovery from surgery, three baseline blood pressure measurements were made at 5 min intervals in conscious SHR. Compounds to be tested or vehicle were then administered intravenously in a dose-dependent manner (0.3-10 mg base/kg) while arterial pressure was recorded continuously on a polygraph. The mean arterial pressure response was measured 5 minutes after the administration of each dose of the test compound and the next dose given in a cumulative dose fashion. The response to each dose of the test compound was calculated as the difference from the mean of the three baseline measurements.

The test system is the same in test [3]. The description is as above. Format: in vivo. Particulars: Rattus norvegicus.
The subject of test [4] is Spontaneously hypertensive rats. The experiment in a line: reversal of nitroglycerin-induced tolerance in spontaneously hypertensive rats. Format: in vivo, Spontaneously hypertensive rats (17-25 weeks of age). Particulars: for Percent (%) Reversal of Nitroglycerin-induced Tolerance: iv pretreatment 5-10 min before nitroglycerin challenge. The procedure: Spontaneously hypertensive rats (17-25 weeks of age) were made nitroglycerin tolerant by repeated administration of high doses of nitroglycerin (100 mg/kg, s.c., 3 times/day for 3 consecutive days). To confirm tolerance challenge doses of nitroglycerin were administered intravenously at doses ranging from 1-300 μg/kg and the maximum change in mean arterial pressure (MAP) for each dose was recorded. Groups of tolerant rats were pretreated with the compounds of the invention (tolerant pretreated group) or with vehicle (0.05N NaOH) (tolerant vehicle pretreated group) intravenously 5-10 minutes prior to administration of challenge doses of nitroglycerin. The administration of challenge doses of nitroglycerin to non-tolerant rats (the non-tolerant group) caused a dose-dependent decrease in MAP of between 10 to 40 mm Hg. […] The area under the dose-MAP curve was calculated for the non-tolerant group and for the tolerant vehicle pretreated group and the tolerant pretreated group. The percent reversal of nitrate-inducedtolerance was calculated as follows:
Percent Reversal=(AUCtol-pretreated -AUCtol-veh)/(AUCnontol
wherein: AUCnontol =the area under the dose-MAP curve for the non-tolerant group.
AUCtol-veh =the area under the dose-MAP curve for the tolerant vehicle pretreated group.
AUCtol-pretreated =the area under the dose-MAP curve for the tolerant pretreated group.
The following table summarizes the results obtained from the testing of representative compounds of the invention.

Consider `CCc1nn(C2CCCC2)c2nc(Cc3ccccc3)[nH]c(=O)c12` [1(b), 1-cyclopentyl-3-ethyl-6-(phenylmethyl)-pyrazolo[3,4-d]pyrimdin-4-one], for which the 50% inhibitory concentration (IC50) in test [1] amounted to 10 nM. The change in vivo at 1 mg/kg in test [2] (1 mg/kg) was -15%. Besides, the change in vivo at 30 mg/kg in test [3] (SHR iv, 30 mg/kg) was -29%.
As to `CCc1[nH]n(C2CCCC2)c2nc(Cc3ccc(OC)cc3)nc(=O)c1-2` [Example 6, 1-cyclopentyl-3-ethyl-6-(4-methoxyphenylmethyl)pyrazolo[3,4-d]pyrimidin-4-one], in test [4] (Dose 1.0 mg/kg), the “Percent (%) Reversal of Nitroglycerin-induced Tolerance” value (shortened to “Percent (%) Reversal”) is recorded as 69%. Also, the “Percent (%) Reversal” value in test [4] (Dose 3.0 mg/kg) is on record as 140%. In addition, half-maximal inhibition in test [1] (IC50) required 23 nM. Besides, in test [2], the ED25 worked out at 8.4 mg/kg and the change in vivo at 10 mg/kg was -30%.
As to `CCc1[nH]n(C2CCCC2)c2nc(Cc3ccc(O)cc3)nc(=O)c1-2` [Example 7, 1-cyclopentyl-3-ethyl-6-(4-hydroxyphenylmethyl)pyrazolo[3,4-d]pyrimidin-4-one], the “Percent (%) Reversal” value in test [4] (Dose 0.3 mg/kg) stood at 46%; in test [4] (Dose 1.0 mg/kg), 45%. The molecule further returned an IC50 in test [1] of 19 nM. Moreover, the ED25 in test [2] worked out at 4.6 mg/kg.
`CCc1[nH]n(C2CCCC2)c2nc(Cc3cccc(O)c3)nc(=O)c1-2` [Example 20, 1-cyclopentyl-3-ethyl-6-(3-hydroxyphenylmethyl)pyrazolo[3,4-d]pyrimidin-4-one]: in test [1], inhibition was half-maximal at 86 nM (IC50). In addition, in test [2], the ED25 was determined as 10.1 mg/kg and the change in vivo at 10 mg/kg is -23%.
In test [1], `CCc1[nH]n(C2CCCC2)c2nc(Cc3ccc(N)cc3)nc(=O)c1-2` [Example 26, 1-cyclopentyl-3-ethyl-6-(4-aminophenylmethyl)pyrazolo[3,4-d]pyrimidin-4-one] showed an IC50 of 8.7 nM. In addition, in test [2], the ED25 turned out to be 4.2 mg/kg and the change in vivo at 10 mg/kg is -46%. In addition, the change in vivo at 10 mg/kg in test [3] (SHR, 10 mg/kg, po) is -56%.
In the case of `O=[N+]([O-])OCC(CO[N+](=O)[O-])O[N+](=O)[O-]` [nitroglycerin, reference compound], the “hypotensive response to nitroglycerin challenge” value in test [4] (tolerant vehicle pretreated group, 1-300 μg/kg iv) was “significant reduction of the hypotensive response”.

For orientation: IC50 means the concentration that gives 50% inhibition. A higher IC50 goes with lower potency.
